From US20150175655A1 (priority 2012, published 2015)

These compounds were tested against T1, NS3 genotype 1b protease (Hepatitis C virus genotype 1b, UniProt Q9WMX2, E1202G) (assay: Ki determination, NS3 protease genotype 1b (fluorogenic depsipeptide substrate)). Details: not given.
T1 construct: Purified NS3 protease domain (amino acids 1-181) of the genotype 1b and 3a virus were generated as above; K3 hexahistidine tag (N); rTEV protease cleavage site (N); made in house; host or cells: E. coli BL21AI, pET28 vector p28-N6H-Tev-NS3(181)1b
Format: biochemical
Excerpt: The coding sequence of the genotype 1b (con-1 strain) HCV NS3 protease domain was PCR amplified from a plasmid encoding the I389luc-ubi-neo/NS3-3′/ET replicon (Reblikon, Mainz, Germany). The 5′-PCR primer was designed to encode an N-terminal K3 hexahistidine tag and to insert an in-frame recombinant Tobacco Etch virus (rTEV) protease cleavage site into the NS3 coding sequence. The resulting DNA fragment was cloned into the pET28 protein expression vector (Invitrogen, Carlsbad, Calif.) yielding the p28-N6H-Tev-NS3(181)1b.
BL21AI bacteria (Invitrogen, Carlsbad, Calif.) were transformed with genotype 1b or 3 NS3 expression vectors and used to inoculate a 20 L fermentation vessel (Sartorius BBI System Inc., Bethlehem, Pa.), containing 18 L of fresh 2YT medium supplemented with 50 μg/mL kanamycin. When cell densities reached an OD600 of 1, the temperature of the cultures was reduced from 37° C. to 28° C. and induction was immediately initiated by the addition of 30 μM ZnSO4, 14 mM L-arabinose and 1 mM Isopropyl β-D-thiogalactoside (IPTG) final concentrations. Cells were harvested by centrifugation four hours post-induction and were stored as frozen pellets at −80° C. prior to NS3 protein purification.
Cell pellets were thawed and resuspended at 10 mL/g cells in lysis buffer containing 50 mM tris pH 7.6, 300 mM NaCl, 0.1% 3-[(3-cholamidopropyl)dimethylammonio]-1-propanesulfonate (CHAPS), 5% glycerol, and 2 mM β-mercaptoethanol. Cell suspensions were then sonicated, filtered through cheesecloth, and passed three times through a microfluidizer at 18,000 pounds/in^2. The resulting lysates were centrifuged at 15500 rpm for 45 minutes and supernatants were loaded onto a HisTrap HP column (GE Lifesciences) pre-equilibrated with five volumes of Ni buffer A (50 mM tris pH 7.6, 300 mM NaCl, 0.1% CHAPS, 5% glycerol, 2 mM β-mercaptoethanol, 50 mM imidazole-HCl). Proteins were eluted with a 0-100% gradient of Ni buffer A plus 500 mM imidazole-HCl and fractions were collected and pooled. The HisTrap pool was diluted 1:10 with SP-A buffer (50 mM tris pH 7.0, 10% glycerol, 2 mM dithiothreitol (DTT)) and loaded onto a HiTrap SP-HP column (GE Lifesciences) equilibrated with SP-A buffer. NS3 protease was eluted with a 0-100% SP-B buffer (SP-A buffer plus 1 M NaCl) gradient. Concentrated pools of NS3-containing SP fractions were aliquoted, snap frozen in liquid nitrogen and stored at −80° C.
Purified NS3 protease domain (amino acids 1-181) of the genotype 1b and 3a virus were generated as above.
Reactions were run at room temperature in buffer consisting of 50 mM HEPES, 40% glycerol, 0.05% Triton X-100, 10 mM DTT, and 10% DMSO. The final assay solutions contained 50 pM NS3 genotype 1b protease or 200 pM genotype 3a protease, 20 μM NS4A peptide, and 4 μM substrate (genotype 1 b) or 2 μM substrate (genotype 3a). Inhibitor concentrations varied from 100 nM to 5 pM in 3-fold dilutions, and no-inhibitor controls were included.
Compound dilutions were made in DMSO at 20× final concentration. Reaction mixtures were prepared in 96-well assay plates. A solution of enzyme and NS4A peptide in assay buffer (25 μL volume with both reagents at 4× final concentration) was mixed with 45 μL assay buffer and 5 μL of either inhibitor or DMSO, and pre-incubated at room temperature for 1 hour. The reaction was started by addition of 25 μL substrate solution at 4× final concentration. Plates were mixed vigorously for 5-10 seconds and reactions were allowed to proceed for 90 minutes. fluorescence was measured every 30 s between 90 and 120 minutes reaction time using a Tecan InfiniTe M1000 or PerkinElmer Envision multimode plate reader with an excitation wavelength of 340 nm and an emission wavelength of 490 nm.
To determine the K, rates were plotted as a function of inhibitor concentration, and the data were fit with equation 1 (Morrison, J. F., Biochimica et Biophysica Acta 1969, 185, 269-286) to calculate Ki^app using GraphPad Prism 5.

Row | Compound | Ki [nM]
1 | COc1ccc2nc3c(nc2c1)O[C@H]1CN(C(=O)[C@H](C(C)(C)C)NC(=O)O[C@@H]2C[C@H]2CCCCC3(F)F)[C@H](C(=O)N[C@]2(C(=O)NS(=O)(=O)C3(C)CC3)C[C@H]2C(F)F)[C@@H]1C [Example 46, (1aR,5S,8S,9S,10R,22aR)-5-tert-butyl-N-[(1R,2R)-2-(difluoromethyl)-1-{[(1-methylcyclopropyl)sulfonyl]carbamoyl}cyclopropyl]-18,18-difluoro-14-methoxy-9-methyl-3,6-dioxo-1,1a,3,4,5,6,9,10,18,19,20,21,22,22a-tetradecahydro-8H-7,10-methanocyclopropa[18,19][1,10,3,6]dioxadiazacyclononadecino[11,12-b]quinoxaline-8-carboxamide] | 0.03
2 | CCOc1ccc2nc3c(nc2c1)O[C@H]1CN(C(=O)[C@H](C(C)(C)C)NC(=O)O[C@@H]2C[C@H]2CCCCC3)[C@H](C(=O)N[C@]2(C(=O)NS(=O)(=O)C3(C)CC3)C[C@H]2C(F)F)[C@@H]1CC [Example 69, (1aR,5S,8S,9S,10R,22aR)-5-tert-butyl-N-[(1R,2R)-2-(difluoromethyl)-1-{[(1-methylcyclopropyl)sulfonyl]carbamoyl}cyclopropyl]-14-ethoxy-9-ethyl-3,6-dioxo-1,1a,3,4,5,6,9,10,18,19,20,21,22,22a-tetradecahydro-8H-7,10-methanocyclopropa[18,19][1,10,3,6]dioxadiazacyclononadecino[11,12-b]quinoxaline-8-carboxamide] | 0.07
3 | CC[C@@H]1[C@@H]2CN(C(=O)[C@H](C(C)(C)C)NC(=O)O[C@]3(C)CCC[C@H]3CCCCCc3nc4ccc(OC)cc4nc3O2)[C@@H]1C(=O)N[C@]1(C(=O)NS(=O)(=O)C2(C)CC2)C[C@H]1C(F)F [Example 39, (3aR,7S,10S,11S,12R,24aR)-7-tert-butyl-N-[(1R,2R)-2-(difluoromethyl)-1-{[(1-methylcyclopropyl)sulfonyl]carbamoyl}cyclopropyl]-11-ethyl-16-methoxy-3a-methyl-5,8-dioxo-1,2,3,3a,5,6,7,8,11,12,20,21,22,23,24,24a-hexadecahydro-10H-9,12-methanocyclopenta[18,19][1,10,3,6]dioxadiazacyclononadecino[11,12-b]quinoxaline-10-carboxamide] | 0.08
4 | CC[C@]12C[C@@H]1CCCCCc1nc3ccc(OC)cc3nc1O[C@H]1CN(C(=O)[C@H](C(C)(C)C)NC(=O)O2)[C@H](C(=O)N[C@]2(C(=O)NS(=O)(=O)C3(C)CC3)C[C@H]2C(F)F)[C@@H]1C [Example 42, (1aS,5S,8S,9S,10R,22aS)-5-tert-butyl-N-[(1R,2R)-2-(difluoromethyl)-1-{[(1-methylcyclopropyl)sulfonyl]carbamoyl}cyclopropyl]-1a-ethyl-14-methoxy-9-methyl-3,6-dioxo-1,1a,3,4,5,6,9,10,18,19,20,21,22,22a-tetradecahydro-8H-7,10-methanocyclopropa[18,19][1,10,3,6]dioxadiazacyclononadecino[11,12-b]quinoxaline-8-carboxamide] | 0.1
5 | CC[C@@]12C[C@H]1CCCCCc1nc3ccc(OC)cc3nc1O[C@H]1CN(C(=O)[C@H](C(C)(C)C)NC(=O)O2)[C@H](C(=O)N[C@]2(C(=O)NS(=O)(=O)C3(C)CC3)C[C@H]2C(F)F)[C@@H]1C [Example 43, (1aR,5S,8S,9S,10R,22aR)-5-tert-butyl-N-[(1R,2R)-2-(difluoromethyl)-1-{[(1-methylcyclopropyl)sulfonyl]carbamoyl}cyclopropyl]-1a-ethyl-14-methoxy-9-methyl-3,6-dioxo-1,1a,3,4,5,6,9,10,18,19,20,21,22,22a-tetradecahydro-8H-7,10-methanocyclopropa[18,19][1,10,3,6]dioxadiazacyclononadecino[11,12-b]quinoxaline-8-carboxamide] | 0.06
6 | CC[C@@H]1[C@@H]2CN(C(=O)[C@H](C(C)(C)C)NC(=O)O[C@@H]3C[C@H]3CCCC3CC3c3nc4ccc(OC)cc4nc3O2)[C@@H]1C(=O)N[C@]1(C(=O)NS(=O)(=O)C2(C)CC2)C[C@H]1C(F)F (stereo partly drawn) [Example 36, (1aR,5S,8S,9S,10R,21aR)-5-tert-butyl-N-[(1R,2R)-2-(difluoromethyl)-1-{[(1-methylcyclopropyl)sulfonyl]carbamoyl}cyclopropyl]-9-ethyl-14-methoxy-3,6-dioxo-1a,3,4,5,6,9,10,17b,18,18a,19,20,21,21a-tetradecahydro-1H,8H-7,10-methanodicyclopropa[13,14:18,19][1,10,3,6]dioxadiazacyclononadecino[11,12-b]quinoxaline-8-carboxamide] | 0.1
7 | CC[C@@H]1[C@@H]2CN(C(=O)[C@H](C(C)(C)C)NC(=O)O[C@@H]3C[C@H]3CCCCCc3nc4ccc(OC)cc4nc3O2)[C@@H]1C(=O)N[C@]1(C(=O)NS(=O)(=O)C2(C)CC2)C[C@H]1C(F)F [Example 1, (1aR,5S,8S,9S,10R,22aR)-5-tert-butyl-N-[ (1R,2R)-2-(difluoromethyl)-1-{[(1-methylcyclopropyl)sulfonyl]carbamoyl}cyclopropyl]-9-ethyl-14-methoxy-3,6-dioxo-1,1a,3,4,5,6,9,10,18,19,20,21,22,22a-tetradecahydro-8H-7,10-methanocyclopropa[18,19][1,10,3,6]dioxadiazacyclononadecino[11,12-b]quinoxaline-8-carboxamide] | 0.03
8 | COc1ccc2nc3c(nc2c1)O[C@H]1CN(C(=O)[C@H](C(C)(C)C)NC(=O)O[C@]2(C)C[C@H]2CCCCC3(F)F)[C@H](C(=O)N[C@]2(C(=O)NS(=O)(=O)C3(C)CC3)C[C@H]2C(F)F)[C@@H]1C (single isomer, unassigned) [Example 76] | 0.03

Same assay, conditions: NS3 protease genotype 1b, 50 pM enzyme, 20 μM NS4A peptide, 4 μM substrate; read-out: Ki 1B

Row | Compound | Ki [nM]
9 | CC[C@@H]1[C@@H]2CN(C(=O)[C@H](C(C)(C)C)NC(=O)O[C@@]3(C(F)(F)F)CCCC3CCCCCc3nc4ccc(OC)cc4nc3O2)[C@@H]1C(=O)N[C@]1(C(=O)NS(=O)(=O)C2(C)CC2)C[C@H]1C(F)F (stereo partly drawn) [Example 10, (7S,10S,11S,12R)-7-tert-butyl-N-[(1R,2R)-2-(difluoromethyl)-1-{[(1-methylcyclopropyl)sulfonyl]carbamoyl}cyclopropyl]-11-ethyl-16-methoxy-5,8-dioxo-3aS-(trifluoromethyl)-1,2,3,3a,5,6,7,8,11,12,20,21,22,23,24,24a-hexadecahydro-10H-9,12-methanocyclopenta[18,19][1,10,3,6]dioxadiazacyclononadecino[11,12-b]quinoxaline-10-carboxamide] | 0.16
10 | CC[C@@H]1[C@@H]2CN(C(=O)[C@H](C(C)(C)C)NC(=O)O[C@]3(C(F)(F)F)CCCC3CCCCCc3nc4ccc(OC)cc4nc3O2)[C@@H]1C(=O)N[C@]1(C(=O)NS(=O)(=O)C2(C)CC2)C[C@H]1C(F)F (stereo partly drawn) [Example 9, (7S,10S,11S,12R)-7-tert-butyl-N-[(1R,2R)-2-(difluoromethyl)-1-{[(1-methylcyclopropyl)sulfonyl]carbamoyl}cyclopropyl]-11-ethyl-16-methoxy-5,8-dioxo-3aR-(trifluoromethyl)-1,2,3,3a,5,6,7,8,11,12,20,21,22,23,24,24a-hexadecahydro-10H-9,12-methanocyclopenta[18,19][1,10,3,6]dioxadiazacyclononadecino[11,12-b]quinoxaline-10-carboxamide] | 0.15
